The values that follow come from ChEMBL document CHEMBL4823249, “Discovery of a Pyrimidinedione Derivative as a Potent and Orally Bioavailable Axl Inhibitor” (J Med Chem, 2021).

A short description of data set [1]: Tmax in Sprague-Dawley rat at 3 mg/kg, po measured upto 24 hrs by LC-MS analysis. The settings on record: in vivo. The format is ADME, organism-based.
The nature of data set [2]: Half life in Sprague-Dawley rat at 3 mg/kg, po measured upto 24 hrs by LC-MS analysis. The format is ADME, organism-based. The settings on record: in vivo.
Data set [3] in a line: AUC(0 to t) in Sprague-Dawley rat at 3 mg/kg, po measured upto 24 hrs by LC-MS analysis. The format is ADME, organism-based. Set-up: route oral, dose 3 mg/kg, time <=24. The conditions noted are these: in vivo.
The nature of data set [4]: AUC(0 to infinity) in Sprague-Dawley rat at 3 mg/kg, po measured upto 24 hrs by LC-MS analysis. Set-up: route oral, dose 3 mg/kg, time <=24. The format is ADME, organism-based. The conditions noted are these: in vivo.
Data set [5] can be described thus: Cmax in Sprague-Dawley rat at 3 mg/kg, po measured upto 24 hrs by LC-MS analysis. Also noted: route oral, dose 3 mg/kg, time <=24. The format is ADME, organism-based. The conditions noted are these: in vivo.
Data set [6] deals with BaF3. The data set is described as follows: Antiproliferative activity against mouse BaF3/TEL-AXL cells incubated for 72 hrs by SRB or CCK8 assay. The conditions noted are these: BaF3, 72 h. On the technique in general: Formazan colour is commonly taken as a measure of viable cells.
A further data set concerns U-87 MG. The data set can be described thus: Antitumor activity against human U-87MG cells xenografted in BALB/c nude mouse assessed as tumor growth inhibition at 50 mg/kg, po administered once daily for 14 days by caliper method. The format is functional, U-87MG ATCC. The settings on record: 336 h, time 14 day, read-out: TGI. Background: In xenograft studies the graft and the host belong to different species.

Data set [7] concerns the target T1, Tyrosine-protein kinase receptor UFO (Homo sapiens, UniProt P30530).
T1 sequence (P30530 whole entry): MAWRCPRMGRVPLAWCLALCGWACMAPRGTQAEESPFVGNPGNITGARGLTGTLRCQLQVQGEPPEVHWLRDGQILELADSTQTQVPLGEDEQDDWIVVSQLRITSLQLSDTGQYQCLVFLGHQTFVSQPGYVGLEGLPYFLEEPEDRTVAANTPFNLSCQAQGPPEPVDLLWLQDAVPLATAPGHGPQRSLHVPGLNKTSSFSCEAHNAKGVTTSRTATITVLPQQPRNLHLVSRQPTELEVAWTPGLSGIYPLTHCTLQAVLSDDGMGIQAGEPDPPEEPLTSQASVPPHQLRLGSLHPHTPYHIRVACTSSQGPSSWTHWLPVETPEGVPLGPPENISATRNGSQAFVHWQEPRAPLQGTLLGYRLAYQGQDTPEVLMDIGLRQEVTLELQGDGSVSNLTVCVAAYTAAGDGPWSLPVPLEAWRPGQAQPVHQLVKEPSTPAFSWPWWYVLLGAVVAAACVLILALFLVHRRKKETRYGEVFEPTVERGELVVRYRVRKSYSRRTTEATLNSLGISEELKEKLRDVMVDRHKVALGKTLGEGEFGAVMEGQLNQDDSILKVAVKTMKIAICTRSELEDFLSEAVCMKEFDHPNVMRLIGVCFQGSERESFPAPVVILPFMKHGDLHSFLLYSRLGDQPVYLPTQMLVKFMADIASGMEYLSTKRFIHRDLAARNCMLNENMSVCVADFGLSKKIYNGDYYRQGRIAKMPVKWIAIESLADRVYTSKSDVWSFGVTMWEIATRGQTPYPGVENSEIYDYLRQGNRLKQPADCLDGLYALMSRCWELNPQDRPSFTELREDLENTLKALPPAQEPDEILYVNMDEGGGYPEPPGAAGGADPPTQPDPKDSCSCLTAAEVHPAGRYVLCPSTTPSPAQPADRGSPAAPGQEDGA
The data set can be described thus: Inhibition of AXL (unknown origin) using poly [Glu, Tyr] 4:1 as substrate incubated for 60 mins in presence of ATP by ELISA. On the technique in general: In an ELISA, binding on a coated surface is turned into a signal by an enzyme label.

The test system of data set [8] is BaF3. The data set is described as follows: Antitumor activity against mouse BaF3/TEL-AXL cells xenografted in BALB/c nude mouse assessed as tumor growth inhibition at 50 mg/kg, po administered once daily for 14 days by caliper method. The format is functional. The conditions noted are these: 336 h, time 14 day, read-out: TGI.

Each structure is given as a SMILES string. Where only a bound is given, the exact number is not on record here.

Turning to `CC(C)n1cc(C(=O)Nc2ccc(Oc3ccnc(-c4cn[nH]c4)c3)c(F)c2)c(=O)n(-c2ccc(F)cc2)c1=O`, the Tmax (usually the time from dosing to the highest level) in data set [1] is 1.67 h. For the same molecule, the half-life (commonly the time needed for the level to fall by half in the phase considered) in data set [2] was 18.2 h. The AUC(0-t) (as a rule, the area under the concentration-time curve up to a stated or last time point) at 24 h in data set [3] turned out to be 31600 ng·h/mL. For the same molecule, in data set [4], the AUC(0-inf) (usually total exposure, with the tail of the curve extrapolated) stood at 52200 ng·h/mL. For the same molecule, the highest level in data set [5] (Cmax) was 2570 ng/mL. In the data set on BaF3 [6], the IC50 (in general, the concentration needed to halve the response being measured) was less than 0.2 nM.
With `C[C@@H](Oc1cc(-c2cnn(C3CCNCC3)c2)cnc1N)c1c(Cl)ccc(F)c1Cl` [CRIZOTINIB], the inhibition in vivo at 50 mg/kg with U-87 MG was 93.3%.
For the molecule `COc1cc(NC(=O)c2cn(C(C)C)c(=O)n(-c3ccc(F)cc3)c2=O)ccc1Oc1ccnc(-c2cnn(C)c2)c1`, in data set [7], the IC50 is more than 1000 nM.
As for `Cc1nn(C)cc1-c1cc(Oc2ccc(NC(=O)c3cn(C(C)C)c(=O)n(-c4ccc(F)cc4)c3=O)cc2F)ccn1`, in the data set on BaF3 [6], inhibition was half-maximal at 1 nM (IC50).
For `CCc1ccc2c(c1)c(=O)c(C(=O)Nc1ccc(Oc3ccncc3-c3cnn(C)c3)cc1)c(C)n2C`, the IC50 in [7] is more than 1000 nM.
In the data set on BaF3 [6], `CC(=O)Nc1cc(Oc2ccc(NC(=O)c3cn(C(C)C)c(=O)n(-c4ccc(F)cc4)c3=O)cc2F)ccn1` had an IC50 of less than 0.2 nM.
Same read-out and setting: for `CC(C)n1cc(C(=O)Nc2ccc(Oc3ccnc(-c4cnn(CCN5CCN(C)CC5)c4)c3)c(F)c2)c(=O)n(-c2ccc(F)cc2)c1=O` the value was 19.5 nM; for `CCC(=O)Nc1cc(Oc2ccc(NC(=O)c3cn(C(C)C)c(=O)n(-c4ccc(F)cc4)c3=O)cc2F)ccn1`, less than 0.2 nM; for `CC(C)n1cc(C(=O)Nc2ccc(Oc3ccnc(NC(=O)N4CCCC4)c3)c(F)c2)c(=O)n(-c2ccc(F)cc2)c1=O`, less than 0.2 nM.
Same read-out and setting: the figure for `CCc1nc(C(N)=O)c(Nc2ccc(N3CCC(N4CCN(C)CC4)CC3)c(OC)c2)nc1NC1CCOCC1` [GILTERITINIB] is 7.6 nM; for `CC(C)n1cc(C(=O)Nc2ccc(Oc3ccnc(NC(=O)C4CCC4)c3)c(F)c2)c(=O)n(-c2ccc(F)cc2)c1=O` it is 43.2 nM.
Regarding `CCOc1cn(-c2ccc(F)cc2)nc1C(=O)Nc1ccc(Oc2ccncc2-c2cnn(C)c2)cc1`, in data set [7], the IC50 is more than 1000 nM.
On the same count and under the same terms, for `Cn1cc(-c2cnccc2Oc2ccc(NC(=O)C3=C(c4ccccc4)c4ccccc4C3=O)cc2)cn1` the value was more than 1000 nM.
For `Nc1nc(Nc2ccc3c(c2)CC[C@@H](N2CCCC2)CC3)nn1-c1cc2c(nn1)-c1ccccc1CCC2` [BEMCENTINIB], in the data set on BaF3 [8], the inhibition in vivo at 50 mg/kg turned out to be 108%. This molecule also came in with an IC50 in the data set on BaF3 [6] of 117 nM.
For the molecule `CC(C)n1cc(C(=O)Nc2ccc(Oc3ccnc(-c4cnn(C5CC5)c4)c3)c(F)c2)c(=O)n(-c2ccc(F)cc2)c1=O`, the IC50 with BaF3 [6] amounted to 6.3 nM.
On the same count and under the same terms, the figure for `CC(C)n1cc(C(=O)Nc2ccc(Oc3ccnc(NC(=O)N4CCOCC4)c3)c(F)c2)c(=O)n(-c2ccc(F)cc2)c1=O` is less than 0.2 nM; for `CC(C)n1cc(C(=O)Nc2ccc(Oc3ccnc(-c4cnn(CC(C)(C)O)c4)c3)c(F)c2)c(=O)n(-c2ccc(F)cc2)c1=O` it is 2.8 nM.
Turning to `CC(C)n1cc(C(=O)Nc2ccc(Oc3ccnc(-c4cnn(C)c4)c3)c(F)c2)c(=O)n(-c2ccc(F)cc2)c1=O`, the IC50 with BaF3 [6] is 1.9 nM.
On to `Cn1cc(-c2cnccc2Oc2ccc(NC(=O)c3c4c(cn(-c5ccccc5)c3=O)C(=O)CCC4)cc2)cn1`, for which the IC50 in data set [7] is more than 1000 nM.
